Tests used:
[1] = molecular target: human Factor XIa (Homo sapiens (Human), UniProt P03951); assay: Factor XIa Assay (fluorogenic substrate GPR-AFC); assay type: biochemical; settings: Factor XIa (FXIa)
[2] = molecular target: Human plasma kallikrein (Homo sapiens (Human), UniProt P03952); assay: Kallikrein Assay (fluorogenic substrate Acetyl-K-P-R-AFC); assay type: biochemical; settings: Plasma Kallikrein (PKal)
Outline: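 Ki is derived from IC50 with the Cheng-Prusoff equation, and IC50 from the inflection point of a four-parameter logistic curve. The rate of AFC release is read with 0.5 nM purified enzyme and […] substrate at room temperature or 37 °C.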

Chain of Human plasma kallikrein (P03952 391-638): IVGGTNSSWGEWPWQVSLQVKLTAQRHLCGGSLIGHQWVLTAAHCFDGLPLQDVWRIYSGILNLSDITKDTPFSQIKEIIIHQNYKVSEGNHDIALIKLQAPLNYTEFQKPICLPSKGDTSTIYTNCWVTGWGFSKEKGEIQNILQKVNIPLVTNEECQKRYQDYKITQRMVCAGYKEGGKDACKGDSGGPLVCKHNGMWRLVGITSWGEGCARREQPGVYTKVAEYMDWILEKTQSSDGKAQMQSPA
Chain of Human plasma kallikrein (P03952 20-390 partner): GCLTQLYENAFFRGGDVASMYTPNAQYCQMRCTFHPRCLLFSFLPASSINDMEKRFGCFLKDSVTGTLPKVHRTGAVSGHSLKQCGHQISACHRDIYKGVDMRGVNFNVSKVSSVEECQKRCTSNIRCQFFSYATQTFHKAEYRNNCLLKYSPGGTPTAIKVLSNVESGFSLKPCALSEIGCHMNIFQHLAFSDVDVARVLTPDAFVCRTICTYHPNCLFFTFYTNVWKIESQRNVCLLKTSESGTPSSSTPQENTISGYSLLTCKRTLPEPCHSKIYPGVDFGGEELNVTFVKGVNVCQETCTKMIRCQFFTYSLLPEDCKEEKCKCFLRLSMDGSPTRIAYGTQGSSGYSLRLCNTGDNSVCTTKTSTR
Chain of human Factor XIa (P03951 388-625 limits assumed): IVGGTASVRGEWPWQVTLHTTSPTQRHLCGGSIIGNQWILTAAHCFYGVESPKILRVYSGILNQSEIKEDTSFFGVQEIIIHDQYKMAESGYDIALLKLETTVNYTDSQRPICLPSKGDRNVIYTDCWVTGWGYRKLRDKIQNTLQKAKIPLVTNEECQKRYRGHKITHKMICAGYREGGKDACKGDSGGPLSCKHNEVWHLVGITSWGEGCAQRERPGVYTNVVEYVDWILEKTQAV
Chain of human Factor XIa (P03951 19-387 partner limits assumed): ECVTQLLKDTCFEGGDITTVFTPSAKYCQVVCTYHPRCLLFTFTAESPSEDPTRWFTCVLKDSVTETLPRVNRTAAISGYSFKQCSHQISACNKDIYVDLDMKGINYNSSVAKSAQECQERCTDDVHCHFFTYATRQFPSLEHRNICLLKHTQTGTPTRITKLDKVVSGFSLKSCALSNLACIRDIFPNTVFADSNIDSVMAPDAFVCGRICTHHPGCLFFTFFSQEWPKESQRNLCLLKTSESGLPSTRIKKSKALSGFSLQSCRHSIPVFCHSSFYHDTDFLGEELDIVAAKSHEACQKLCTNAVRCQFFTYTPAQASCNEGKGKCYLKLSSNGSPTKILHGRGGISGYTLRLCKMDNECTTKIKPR

Structure (SMILES)	IC50 [1]	IC50 [2]
Cc1ncc(-c2c(C(F)F)ccc(Cl)c2F)nc1C(=O)Nc1cnn(C(C)c2cnc(N3C[C@H]4C[C@H]4C3=O)c(OC(F)F)c2C)c1 (single isomer, unassigned) [Example 224]	> 10 µM	0.0661 µM
C[C@H](c1cnc(N2C[C@H]3C[C@H]3C2=O)nc1N)n1cc(NC(=O)c2cncc(-c3c(C(F)F)ccc(Cl)c3F)n2)cn1 [Example 170, N-(1-((R)-1-(4-Amino-2-((1R,5S)-2-oxo-3-azabicvclo[3.1.0]hexan-3-yl)pyrimidin-5-yl)ethyl)-1H-pyrazol-4-yl)-6-(3-chloro-6-(difluoromethyl)-2-fluorophenyl)pyrazine-2-carboxamide]	> 10 µM	0.0207 µM
CC(c1cnc(N2C[C@H]3C[C@H]3C2=O)c(F)c1)n1cc(NC(=O)c2nc(-c3c(C(F)F)ccc(Cl)c3F)cnc2COC(C)(C)C)cn1 (single isomer, unassigned) [Example 144, 3-(tert-Butoxymethyl)-6-(3-chloro-6-(difluoromethyl)-2-fluorophenyl)-N-(1-((R or S)-1-(5-fluoro-6-((1R,5S)-2-oxo-3-azabicyclo[3.1.0]hexan-3-yl)pyridin-3-yl)ethyl)-1H-pyrazol-4-yl)pyrazine-2-carboxamide]	> 10 µM	0.0016 µM
Cc1nc(N2C[C@H]3C[C@H]3C2=O)ncc1C(C)n1cc(NC(=O)c2nc(-c3c(C(F)F)ccc(Cl)c3F)cnc2C)cn1 (single isomer, unassigned) [Example 43]	4.51 µM	0.0734 µM
Cc1c(N2C[C@H]3C[C@H]3C2=O)cnc(C(C)n2cc(NC(=O)c3cncc(-c4c(C(F)F)ccc(Cl)c4F)n3)cn2)c1N (single isomer, unassigned) [Example 117, N-(1-((S or R)-1-(3-Amino-4-methyl-5-((1R,SS)-2-oxo-3-azabicyclo[3.1.0]hexan-3-yl)pyridin-2-yl)ethyl)-1H-pyrazol-4-yl)-6-(3-chloro-6-(difluoromethyl)-2-fluorophenyl)pyrazine-2-carboxamide]	> 10 µM	0.0019 µM
Cc1ncc(-c2c(C(F)F)ccc(Cl)c2F)nc1C(=O)Nc1cnn(C(C)c2cnc(N3C[C@H]4C[C@H]4C3=O)nc2)c1 (single isomer, unassigned) [Example 30, 6-(3-Chloro-6-(difluoromethyl)-2-fluorophenyl)-3-methyl-N-(1-((R or S)-1-(2-((1R,5S)-2-oxo-3-azabicyclo[3.1.0]hexan-3-yl)pyrimidin-5-yl)ethyl)-1H-pyrazol-4-yl)pyrazine-2-carboxamide]	2.83 µM	0.0018 µM
Cc1cc(N2C[C@H]3C[C@H]3C2=O)ncc1C(C)n1cc(NC(=O)c2cncc(-c3c(C(F)F)ccc(Cl)c3F)n2)cn1 (single isomer, unassigned) [Example 68, 6-(3-Chloro-6-(difluoromethyl)-2-fluorophenyl)-N-(1-((S or R)-1-(4-methyl-6-((1R,5S)-2-oxo-3-azabicyclo[3.1.0]hexan-3-yl)pyridin-3-yl)ethyl)-1H-pyrazol-4-yl)pyrazine-2-carboxamide]	5.25 µM	0.0011 µM
C=Cc1ncc(-c2c(C(F)F)ccc(Cl)c2F)nc1C(=O)Nc1cnn(Cc2cnc(N3C[C@H]4C[C@H]4C3=O)nc2C)c1 [Example 35, 6-(3-Chloro-6-(difluoromethyl)-2-fluorophenyl)-N-(1-((4-methyl-2-((1R,5S)-2-oxo-3-azabicyclo[3.1.0]hexan-3-yl)pyrimidin-5-yl)methyl)-1H-pyrazol-4-yl)-3-vinylpyrazine-2-carboxamide]	4.94 µM	0.0068 µM
Cc1ncc(-c2c(C(F)F)ccc(Cl)c2F)nc1C(=O)Nc1cnn(Cc2ncc(N3C[C@H]4C[C@H]4C3=O)c(C)c2F)c1 [Example 215, 6-(3-Chloro-6-(difluoromethyl)-2-fluorophenyl)-N-(1-((3-fluoro-4-methyl-5-((1R,5S)-2-oxo-3-azabicyclo[3.1.0]hexan-3-yl)pyridin-2-yl)methyl)-1H-pyrazol-4-yl)-3-methylpyrazine-2-carboxamide]	> 10 µM	0.0078 µM
COCc1ncc(-c2c(C(F)F)ccc(Cl)c2F)nc1C(=O)Nc1cnn(C2(c3cnc(N4C[C@H]5C[C@H]5C4=O)c(C)n3)CC2)c1 [Example 221, 6-(3-Chloro-6-(difluoromethyl)-2-fluorophenyl)-3-(methoxymethyl)-N-(1-(1-(6-methyl-5-((1R,5S)-2-oxo-3-azabicyclo[3.1.0]hexan-3-yl)pyrazin-2-yl)cyclopropyl)-1H-pyrazol-4-yl)pyrazine-2-carboxamide]	> 10 µM	0.0149 µM
C[C@@H](c1cnc(N2C[C@H]3C[C@H]3C2=O)nc1)n1cc(NC(=O)c2cncc(-c3c(C(F)F)ccc(Cl)c3F)n2)cn1 [Example 172, 6-(3-Chloro-6-(difluoromethyl)-2-fluorophenyl)-N-(1-((S)-1-(2-((1R,5S)-2-oxo-3-azabicyclo[3.1.0]hexan-3-yl)pyrimidin-5-yl)ethyl)-1H-pyrazol-4-yl)pyrazine-2-carboxamide]	6.73 µM	0.0064 µM

The next compounds have a lower IC50 [1] than those just listed; values first:

IC50 [1]	IC50 [2]	Structure (SMILES)
0.734 µM	0.0063 µM	CCc1ncc(-c2c(C(F)F)ccc(Cl)c2F)nc1C(=O)Nc1cnn(C(C)c2cc(C)c(N3C[C@H]4C[C@H]4C3=O)nn2)c1 (single isomer, unassigned) [Example 238, 6-(3-Chloro-6-(difluoromethyl)-2-fluorophenyl)-3-ethyl-N-(1-((R or S)-1-(5-methyl-6-((1R,5S)-2-oxo-3-azabicyclo[3.1.0]hexan-3-yl)pyridazin-3-yl)ethyl)-1H-pyrazol-4-yl)pyrazine-2-carboxamide]
2.17 µM	0.002 µM	Cc1c(C(C)n2cc(NC(=O)c3cncc(-c4c(C(F)F)ccc(Cl)c4F)n3)cn2)cnc(N2C[C@H]3C[C@H]3C2=O)c1C (single isomer, unassigned) [Example 153, 6-(3-Chloro-6-(difluoromethyl)-2-fluorophenyl)-N-(1-((S or R)-1-(4,5-dimethyl-6-((1R,5S)-2-oxo-3-azabicyclo[3.1.0]hexan-3-yl)pyridin-3-yl)ethyl)-1H-pyrazol-4-yl)pyrazine-2-carboxamide]
1.05 µM	0.0127 µM	Cc1cc(Cn2cc(NC(=O)c3nc(-c4c(C(F)F)ccc(Cl)c4F)cnc3C(C)O)cn2)nnc1N1C[C@H]2C[C@H]2C1=O (single isomer, unassigned) [Example 208]
0.906 µM	0.0011 µM	CC(c1cnc(N2C[C@H]3C[C@H]3C2=O)c2c1CCC2)n1cc(NC(=O)c2cncc(-c3c(C(F)F)ccc(Cl)c3F)n2)cn1 (single isomer, unassigned) [Example 141, 6-(3-Chloro-6-(difluoromethyl)-2-fluorophenyl)-N-(1-((S or R)-1-(1-((1R,5S)-2-oxo-3-azabicyclo[3.1.0]hexan-3-yl)-6,7-dihydro-5H-cyclopenta[c]pyridin-4-yl)ethyl)-1H-pyrazol-4-yl)pyrazine-2-carboxamide]
1.01 µM	0.0016 µM	Cc1nc(Cn2cc(NC(=O)c3nc(-c4c(C(F)F)ccc(Cl)c4F)cnc3C(F)F)cn2)cnc1N1C[C@H]2C[C@H]2C1=O [Example 94, 6-(3-Chloro-6-(difluoromethyl)-2-fluorophenyl)-3-(difluoromethyl)-N-(1-((6-methyl-5-((1R, 5S)-2-oxo-3-azabicyclo[3.1.0]hexan-3-yl)pyrazin-2-yl)methyl)-1H-pyrazol-4-yl)pyrazine-2-carboxamide]
0.052 µM	0.0004 µM	Cc1c(C(C)n2cc(NC(=O)c3nc(-c4c(C(F)F)ccc(Cl)c4F)cnc3CO)cn2)cnc(N2C[C@H]3C[C@H]3C2=O)c1C (single isomer, unassigned) [Example 201, 6-(3-Chloro-6-(difluoromethyl)-2-fluorophenyl)-N-(1-((S or R)-1-(4,5-dimethyl-6-((1R,5S)-2-oxo-3-azabicyclo[3.1.0]hexan-3-yl)pyridin-3-yl)ethyl)-1H-pyrazol-4-yl)-3-(hydroxymethyl)pyrazine-2-carboxamide]
0.772 µM	0.0019 µM	Cc1nc(C(C)n2cc(NC(=O)c3cncc(-c4c(OC(F)F)ccc(Cl)c4F)n3)cn2)cnc1N1C[C@H]2C[C@H]2C1=O (single isomer, unassigned) [Example 16, 6-(3-Chloro-6-(difluoromethoxy)-2-fluorophenyl)-N-(1-((S or R)-1-(6-methyl-5-((1R,5S)-2-oxo-3-azabicyclo[3.1.0]hexan-3-yl)pyrazin-2-yl)ethyl)-1H-pyrazol-4-yl)pyrazine-2-carboxamide]
0.186 µM	0.0004 µM	Cc1cc(C(C)n2cc(NC(=O)c3nc(-c4c(C(F)F)ccc(Cl)c4F)cnc3C(C)O)cn2)cnc1N1C[C@H]2C[C@H]2C1=O (single isomer, unassigned) [Example 210, 6-(3-Chloro-6-(difluoromethyl)-2-fluorophenyl)-3-((S or R)-1-hydroxyethyl)-N-(1-((S or R)-1-(5-methyl-6-((1R,5S)-2-oxo-3-azabicyclo[3.1.0]hexan-3-yl)pyridin-3-yl)ethyl)-1H-pyrazol-4-yl)pyrazine-2-carboxamide]
0.992 µM	0.0004 µM	Cc1ncc(-c2c(C(F)F)ccc(Cl)c2F)nc1C(=O)Nc1cnn(C(C)c2cnc(N3C[C@H]4C[C@H]4C3=O)c(C)n2)c1 (single isomer, unassigned) [Example 15, 6-(3-Chloro-6-(difluoromethyl)-2-fluorophenyl)-3-methyl-N-(1-((R or S)-1-(6-methyl-5-((1R,5S)-2-oxo-3-azabicyclo[3.1.0]hexan-3-yl)pyrazin-2-yl)ethyl)-1H-pyrazol-4-yl)pyrazine-2-carboxamide]
0.734 µM	0.0026 µM	CCc1ncc(-c2c(C(F)F)ccc(Cl)c2F)nc1C(=O)Nc1cnn(Cc2cnc(N3C[C@H]4C[C@H]4C3=O)c3c2OCO3)c1 [Example 255, 6-(3-Chloro-6-(difluoromethyl)-2-fluorophenyl)-3-ethyl-N-(1-((4-((1R,5S)-2-oxo-3-azabicyclo[3.1.0]hexan-3-yl)-[1,3]dioxolo[4,5-c]pyridin-7-yl)methyl)-1H-pyrazol-4-yl)pyrazine-2-carboxamide]
